Test results as given in patent publication US20080051466A1, “Isoalpha acid based protein kinase modulation cancer treatment” (Metaproteomics, LLC, priority 2006, published 2008).

Tests used:
Test in all cases: KinaseProfiler Assay
Format in all cases: biochemical
CDK5/p35 = CDK5/p35 (Homo sapiens, UniProt Q00535); conditions: read-out: CDK5/p35, % of Control
PrKX = PrKX (Homo sapiens, UniProt P51817); conditions: read-out: PrKX, % of Control
CDK9/cyclin T1 = CDK9/cyclin T1 (Homo sapiens, UniProt P50750); conditions: read-out: CDK9/cyclin T1, % of Control
DAPK2 = DAPK2 (Homo sapiens, UniProt Q9UIK4); conditions: read-out: DAPK2, % of Control
CDK6/cyclinD3 = CDK6/cyclinD3 (Homo sapiens, UniProt Q00534); conditions: read-out: CDK6/cyclinD3, % of Control
TrkB = TrkB (Homo sapiens, UniProt Q16620); conditions: read-out: TrkB, % of Control
cSRC = cSRC (Homo sapiens, UniProt P12931); conditions: read-out: cSRC, % of Control
MSSK1 = MSSK1 (Homo sapiens, UniProt Q9UPE1); conditions: read-out: MSSK1, % of Control
IR = IR (Homo sapiens, UniProt P06213); conditions: read-out: IR, % of Control
JAK3 = biological target: T1, JAK3 (Homo sapiens, UniProt P52333); conditions: read-out: JAK3, % of Control
T1 sequence (P52333 1-1124): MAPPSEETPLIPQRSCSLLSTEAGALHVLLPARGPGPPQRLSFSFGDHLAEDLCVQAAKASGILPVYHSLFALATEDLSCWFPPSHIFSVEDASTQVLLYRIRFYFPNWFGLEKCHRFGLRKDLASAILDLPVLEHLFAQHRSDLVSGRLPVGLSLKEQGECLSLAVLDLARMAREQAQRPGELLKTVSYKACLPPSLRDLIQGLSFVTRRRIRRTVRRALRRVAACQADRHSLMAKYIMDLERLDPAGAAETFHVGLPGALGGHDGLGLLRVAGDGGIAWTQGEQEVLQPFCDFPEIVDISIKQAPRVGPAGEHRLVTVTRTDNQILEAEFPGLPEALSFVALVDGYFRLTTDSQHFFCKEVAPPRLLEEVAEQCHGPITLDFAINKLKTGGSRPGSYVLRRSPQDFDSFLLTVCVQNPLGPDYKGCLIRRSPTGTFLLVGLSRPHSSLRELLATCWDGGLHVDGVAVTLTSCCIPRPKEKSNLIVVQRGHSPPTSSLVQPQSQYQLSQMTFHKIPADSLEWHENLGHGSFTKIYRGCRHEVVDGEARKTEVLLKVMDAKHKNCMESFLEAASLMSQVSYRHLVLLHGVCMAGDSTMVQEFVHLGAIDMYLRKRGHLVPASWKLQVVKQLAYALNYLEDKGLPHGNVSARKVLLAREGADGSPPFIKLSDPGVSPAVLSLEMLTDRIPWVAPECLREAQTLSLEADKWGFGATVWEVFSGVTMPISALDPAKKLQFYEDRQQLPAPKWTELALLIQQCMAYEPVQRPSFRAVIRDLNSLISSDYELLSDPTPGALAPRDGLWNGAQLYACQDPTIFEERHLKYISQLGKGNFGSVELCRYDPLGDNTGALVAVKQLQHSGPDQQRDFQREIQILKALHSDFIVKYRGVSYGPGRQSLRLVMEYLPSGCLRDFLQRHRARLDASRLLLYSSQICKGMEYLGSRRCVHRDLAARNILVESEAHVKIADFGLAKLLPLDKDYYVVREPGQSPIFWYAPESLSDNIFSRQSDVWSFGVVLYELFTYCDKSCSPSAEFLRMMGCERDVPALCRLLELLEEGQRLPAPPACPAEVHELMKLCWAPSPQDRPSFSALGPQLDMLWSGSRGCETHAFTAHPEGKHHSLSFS

PKA = PKA (Homo sapiens, UniProt P17612); conditions: read-out: PKA, % of Control
PKBβ = PKBβ (Homo sapiens, UniProt P31751); conditions: read-out: PKBβ, % of Control
CDK2/cyclinE = CDK2/cyclinE (Homo sapiens, UniProt P24941); conditions: read-out: CDK2/cyclinE, % of Control
Fer = Fer (Homo sapiens, UniProt P16591); conditions: read-out: Fer, % of Control
Fer, sequence (P16591 whole entry): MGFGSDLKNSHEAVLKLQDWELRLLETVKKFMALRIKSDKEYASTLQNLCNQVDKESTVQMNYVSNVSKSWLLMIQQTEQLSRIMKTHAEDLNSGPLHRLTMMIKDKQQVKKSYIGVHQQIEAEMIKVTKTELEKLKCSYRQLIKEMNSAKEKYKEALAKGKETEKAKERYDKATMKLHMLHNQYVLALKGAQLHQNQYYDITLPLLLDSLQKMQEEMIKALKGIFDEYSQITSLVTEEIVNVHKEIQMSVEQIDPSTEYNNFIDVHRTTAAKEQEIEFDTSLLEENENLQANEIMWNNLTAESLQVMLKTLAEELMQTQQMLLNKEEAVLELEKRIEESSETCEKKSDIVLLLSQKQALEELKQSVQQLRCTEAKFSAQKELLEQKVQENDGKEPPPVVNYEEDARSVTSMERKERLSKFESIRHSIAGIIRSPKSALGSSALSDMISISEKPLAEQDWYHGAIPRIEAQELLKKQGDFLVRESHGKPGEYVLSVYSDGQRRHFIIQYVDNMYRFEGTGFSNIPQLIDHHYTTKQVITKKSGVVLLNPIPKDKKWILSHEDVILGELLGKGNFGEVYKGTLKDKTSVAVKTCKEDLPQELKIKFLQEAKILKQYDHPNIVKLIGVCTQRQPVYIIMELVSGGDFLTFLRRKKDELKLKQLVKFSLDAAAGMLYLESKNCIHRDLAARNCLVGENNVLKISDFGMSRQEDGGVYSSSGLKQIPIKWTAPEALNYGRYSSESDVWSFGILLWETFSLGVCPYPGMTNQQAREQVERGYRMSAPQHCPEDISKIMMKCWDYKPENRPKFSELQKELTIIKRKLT

CDK6/cyclinD3, sequence (Q00534 whole entry): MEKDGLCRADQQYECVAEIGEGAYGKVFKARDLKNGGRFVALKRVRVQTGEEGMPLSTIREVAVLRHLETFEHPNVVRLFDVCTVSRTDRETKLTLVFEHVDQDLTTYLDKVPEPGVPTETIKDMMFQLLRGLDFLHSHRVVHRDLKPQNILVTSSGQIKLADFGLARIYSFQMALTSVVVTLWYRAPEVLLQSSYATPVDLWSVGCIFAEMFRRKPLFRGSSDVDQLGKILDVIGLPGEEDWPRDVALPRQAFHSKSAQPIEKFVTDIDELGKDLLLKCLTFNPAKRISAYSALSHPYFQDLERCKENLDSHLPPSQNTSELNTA
CDK6/cyclinD3, sequence (P30281 whole entry partner): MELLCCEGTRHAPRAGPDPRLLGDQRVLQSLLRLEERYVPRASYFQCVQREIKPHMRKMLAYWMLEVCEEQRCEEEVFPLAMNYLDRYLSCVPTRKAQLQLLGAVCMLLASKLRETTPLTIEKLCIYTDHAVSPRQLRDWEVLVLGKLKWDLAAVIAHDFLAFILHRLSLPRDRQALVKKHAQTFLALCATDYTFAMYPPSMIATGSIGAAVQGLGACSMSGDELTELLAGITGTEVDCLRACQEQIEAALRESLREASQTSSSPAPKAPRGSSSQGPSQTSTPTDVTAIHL
cSRC, sequence (P12931 whole entry): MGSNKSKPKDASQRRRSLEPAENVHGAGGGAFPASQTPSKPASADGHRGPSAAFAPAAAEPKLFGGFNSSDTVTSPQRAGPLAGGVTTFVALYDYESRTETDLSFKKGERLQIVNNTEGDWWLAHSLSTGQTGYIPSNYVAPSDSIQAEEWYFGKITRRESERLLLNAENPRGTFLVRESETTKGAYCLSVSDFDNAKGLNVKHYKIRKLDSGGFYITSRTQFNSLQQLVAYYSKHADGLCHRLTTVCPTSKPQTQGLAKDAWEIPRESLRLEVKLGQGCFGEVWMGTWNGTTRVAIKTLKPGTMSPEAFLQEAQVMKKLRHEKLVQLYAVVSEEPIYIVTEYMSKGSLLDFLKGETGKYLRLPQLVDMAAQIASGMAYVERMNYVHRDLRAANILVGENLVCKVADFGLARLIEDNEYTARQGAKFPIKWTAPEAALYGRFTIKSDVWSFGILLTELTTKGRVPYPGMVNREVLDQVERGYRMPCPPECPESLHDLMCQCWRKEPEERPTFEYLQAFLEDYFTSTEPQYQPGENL
TrkB, sequence (Q16620 32-822): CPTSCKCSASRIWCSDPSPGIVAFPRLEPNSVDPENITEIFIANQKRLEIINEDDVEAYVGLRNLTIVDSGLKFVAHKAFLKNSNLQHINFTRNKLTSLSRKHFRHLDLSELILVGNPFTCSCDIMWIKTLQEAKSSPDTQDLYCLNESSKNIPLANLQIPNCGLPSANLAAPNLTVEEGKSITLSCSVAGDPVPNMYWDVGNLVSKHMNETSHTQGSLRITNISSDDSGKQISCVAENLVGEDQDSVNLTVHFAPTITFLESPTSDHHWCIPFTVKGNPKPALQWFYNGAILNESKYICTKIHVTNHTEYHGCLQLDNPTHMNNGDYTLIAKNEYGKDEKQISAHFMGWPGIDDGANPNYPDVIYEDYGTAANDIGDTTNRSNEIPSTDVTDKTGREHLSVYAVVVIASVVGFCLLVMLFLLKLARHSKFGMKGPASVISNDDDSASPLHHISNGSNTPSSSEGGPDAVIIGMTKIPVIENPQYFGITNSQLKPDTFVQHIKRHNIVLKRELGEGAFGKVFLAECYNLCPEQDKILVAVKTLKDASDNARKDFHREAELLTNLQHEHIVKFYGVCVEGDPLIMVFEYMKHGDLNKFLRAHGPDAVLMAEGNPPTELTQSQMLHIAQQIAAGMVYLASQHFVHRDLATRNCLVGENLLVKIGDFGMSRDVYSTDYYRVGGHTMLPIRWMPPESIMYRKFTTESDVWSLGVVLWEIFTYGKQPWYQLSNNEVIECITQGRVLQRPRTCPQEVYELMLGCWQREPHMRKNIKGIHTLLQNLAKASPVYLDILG
MSSK1, sequence (Q9UPE1 whole entry): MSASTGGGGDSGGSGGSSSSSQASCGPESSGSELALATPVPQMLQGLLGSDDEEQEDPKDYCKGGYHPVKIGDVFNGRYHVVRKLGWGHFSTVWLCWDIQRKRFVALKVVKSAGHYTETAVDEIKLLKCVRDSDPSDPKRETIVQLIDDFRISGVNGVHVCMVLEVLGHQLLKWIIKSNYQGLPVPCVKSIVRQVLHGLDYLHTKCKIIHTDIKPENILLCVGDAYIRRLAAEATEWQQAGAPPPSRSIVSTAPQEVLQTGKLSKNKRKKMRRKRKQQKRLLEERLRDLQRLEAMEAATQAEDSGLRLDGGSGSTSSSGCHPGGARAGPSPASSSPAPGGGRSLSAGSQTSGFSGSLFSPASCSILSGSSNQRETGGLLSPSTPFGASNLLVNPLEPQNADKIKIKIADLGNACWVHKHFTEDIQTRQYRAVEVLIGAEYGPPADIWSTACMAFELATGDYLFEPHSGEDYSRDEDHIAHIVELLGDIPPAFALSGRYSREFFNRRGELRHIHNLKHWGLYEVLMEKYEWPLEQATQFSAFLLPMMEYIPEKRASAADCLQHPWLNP
PKBβ, sequence (P31751 whole entry): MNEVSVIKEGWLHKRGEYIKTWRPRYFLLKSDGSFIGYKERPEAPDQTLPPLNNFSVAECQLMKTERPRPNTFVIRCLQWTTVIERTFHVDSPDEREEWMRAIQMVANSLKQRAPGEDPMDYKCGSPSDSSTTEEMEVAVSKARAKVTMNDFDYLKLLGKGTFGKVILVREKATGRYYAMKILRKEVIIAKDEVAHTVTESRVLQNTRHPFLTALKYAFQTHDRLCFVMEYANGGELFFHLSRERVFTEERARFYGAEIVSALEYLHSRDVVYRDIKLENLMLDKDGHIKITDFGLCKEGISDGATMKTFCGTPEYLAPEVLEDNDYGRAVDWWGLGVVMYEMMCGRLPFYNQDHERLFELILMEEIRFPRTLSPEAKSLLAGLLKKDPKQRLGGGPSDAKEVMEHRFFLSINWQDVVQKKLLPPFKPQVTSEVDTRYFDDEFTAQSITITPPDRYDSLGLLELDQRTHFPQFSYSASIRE
CDK9/cyclin T1, sequence (P50750 whole entry): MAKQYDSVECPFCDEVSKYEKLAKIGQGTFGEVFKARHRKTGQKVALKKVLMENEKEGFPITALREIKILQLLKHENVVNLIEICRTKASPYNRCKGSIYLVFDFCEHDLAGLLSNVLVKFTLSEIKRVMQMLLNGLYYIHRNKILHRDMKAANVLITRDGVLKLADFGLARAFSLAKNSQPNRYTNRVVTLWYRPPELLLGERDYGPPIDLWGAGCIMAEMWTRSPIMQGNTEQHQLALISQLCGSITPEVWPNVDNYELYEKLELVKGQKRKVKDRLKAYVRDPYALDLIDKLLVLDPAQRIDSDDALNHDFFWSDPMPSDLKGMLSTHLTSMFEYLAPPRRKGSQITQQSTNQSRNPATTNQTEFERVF
CDK9/cyclin T1, sequence (O60563 whole entry partner): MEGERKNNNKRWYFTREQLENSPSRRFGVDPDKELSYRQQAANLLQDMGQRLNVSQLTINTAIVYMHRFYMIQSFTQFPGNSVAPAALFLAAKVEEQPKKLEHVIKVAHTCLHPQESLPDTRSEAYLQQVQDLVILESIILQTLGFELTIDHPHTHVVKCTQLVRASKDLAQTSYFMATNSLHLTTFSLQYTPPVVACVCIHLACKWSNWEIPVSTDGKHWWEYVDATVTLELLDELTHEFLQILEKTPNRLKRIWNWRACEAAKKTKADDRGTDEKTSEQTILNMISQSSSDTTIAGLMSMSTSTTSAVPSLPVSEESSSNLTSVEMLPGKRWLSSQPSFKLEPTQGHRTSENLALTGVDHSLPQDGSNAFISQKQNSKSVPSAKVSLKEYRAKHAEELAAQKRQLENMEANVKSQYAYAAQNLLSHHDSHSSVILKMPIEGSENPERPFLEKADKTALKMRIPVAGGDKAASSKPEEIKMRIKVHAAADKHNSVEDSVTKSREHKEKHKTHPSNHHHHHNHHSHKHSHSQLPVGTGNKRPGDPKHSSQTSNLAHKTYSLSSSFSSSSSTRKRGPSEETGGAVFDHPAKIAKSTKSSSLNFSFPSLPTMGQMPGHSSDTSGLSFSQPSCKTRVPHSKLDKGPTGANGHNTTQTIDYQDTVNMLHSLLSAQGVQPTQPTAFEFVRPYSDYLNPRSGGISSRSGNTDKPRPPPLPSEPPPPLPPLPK

- remaining activity at 25 µg/mL (CDK5/p35; 25 ug/ml): 41%
- remaining activity at 50 µg/mL (CDK5/p35; 50 ug/ml): 44%
- remaining activity at 1 µg/mL (PrKX; 1 ug/ml): 92%
- remaining activity at 50 µg/mL (PrKX; 50 ug/ml): 3%
- remaining activity at 1 µg/mL (CDK9/cyclin T1; 1 ug/ml): 110%
- remaining activity at 5 µg/mL (CDK9/cyclin T1; 5 ug/ml): 107%
- remaining activity at 25 µg/mL (CDK9/cyclin T1; 25 ug/ml): 45%
- remaining activity at 50 µg/mL (CDK9/cyclin T1; 50 ug/ml): 31%
- remaining activity at 1 µg/mL (DAPK2; 1 ug/ml): 105%
- remaining activity at 5 µg/mL (DAPK2; 5 ug/ml): 88%
- remaining activity at 25 µg/mL (DAPK2; 25 ug/ml): 45%
- remaining activity at 50 µg/mL (DAPK2; 50 ug/ml): 26%
- remaining activity at 1 µg/mL (CDK6/cyclinD3; 1 ug/ml): 110%
- remaining activity at 5 µg/mL (CDK6/cyclinD3; 5 ug/ml): 79%
- remaining activity at 25 µg/mL (CDK6/cyclinD3; 25 ug/ml): 23%
- remaining activity at 50 µg/mL (CDK6/cyclinD3; 50 ug/ml): 7%
- remaining activity at 1 µg/mL (TrkB; 1 ug/ml): 95%
- remaining activity at 5 µg/mL (TrkB; 5 ug/ml): 89%
- remaining activity at 25 µg/mL (TrkB; 25 ug/ml): 58%
- remaining activity at 50 µg/mL (TrkB; 50 ug/ml): 3%
- remaining activity at 1 µg/mL (cSRC; 1 ug/ml): 92%
- remaining activity at 5 µg/mL (cSRC; 5 ug/ml): 50%
- remaining activity at 25 µg/mL (cSRC; 25 ug/ml): 27%
- remaining activity at 50 µg/mL (cSRC; 50 ug/ml): 21%
- remaining activity at 1 µg/mL (MSSK1; 1 ug/ml): 47%
- remaining activity at 5 µg/mL (MSSK1; 5 ug/ml): 11%
- remaining activity at 25 µg/mL (MSSK1; 25 ug/ml): 7%
- remaining activity at 50 µg/mL (MSSK1; 50 ug/ml): 5%
- remaining activity at 1 µg/mL (IR; 1 ug/ml): 120%
- remaining activity at 5 µg/mL (IR; 5 ug/ml): 108%
- remaining activity at 1 µg/mL (JAK3; 1 ug/ml): 104%
- remaining activity at 5 µg/mL (JAK3; 5 ug/ml): 84%
- remaining activity at 25 µg/mL (JAK3; 25 ug/ml): 17%
- remaining activity at 50 µg/mL (JAK3; 50 ug/ml): 5%
- remaining activity at 1 µg/mL (PKA; 1 ug/ml): 105%
- remaining activity at 5 µg/mL (PKA; 5 ug/ml): 109%
- remaining activity at 25 µg/mL (PKA; 25 ug/ml): 98%
- remaining activity at 50 µg/mL (PKA; 50 ug/ml): 21%
- remaining activity at 1 µg/mL (PKBβ; 1 ug/ml): 146%
- remaining activity at 5 µg/mL (PKBβ; 5 ug/ml): 102%
- remaining activity at 25 µg/mL (PKBβ; 25 ug/ml): 1%
- remaining activity at 50 µg/mL (PKBβ; 50 ug/ml): 8%
- remaining activity at 1 µg/mL (CDK2/cyclinE; 1 ug/ml): 82%
- remaining activity at 5 µg/mL (CDK2/cyclinE; 5 ug/ml): 86%
- remaining activity at 25 µg/mL (CDK2/cyclinE; 25 ug/ml): 18%
- remaining activity at 1 µg/mL (Fer; 1 ug/ml): 55%
- remaining activity at 5 µg/mL (Fer; 5 ug/ml): 20%
- remaining activity at 25 µg/mL (Fer; 25 ug/ml): 10%
- remaining activity at 50 µg/mL (Fer; 50 ug/ml): 1%
Compound: COc1cc(O)c(CC=C(C)C)c(O)c1C(=O)/C=C/c1ccc(O)cc1 [Xanthohumol, xanthohumol]
